Values of other authors, collected in US20240315993A1, “ANTIPARASITIC COMPOUNDS” (Intervet Inc., priority 2021, published 2024).

Legend:
[1] = test system: Beet Armyworm (Spodoptera exigua); conditions: Beet Armyworm second instar larvae, 128-well diet tray, 50 μg/cm^2, five to seven days, average of eight wells; cited from earlier work
[2] = test system: Yellow Fever Mosquito (Aedes aegypti); conditions: Aedes aegypti larvae about 1 day old, 96-well plate, scored after 3 days; cited from earlier work
[3] = test system: Cabbage Looper (Trichoplusia ni); conditions: Cabbage Looper second instar larvae, 128-well diet tray, 50 μg/cm^2, five to seven days, average of eight wells; cited from earlier work

Row | SMILES | Test A: Bioassay on BAW, percent mortality rating [1] | Test C: Bioassay on Yellow Fever Mosquito, mortality rating [2] | Test B: Bioassay on CL, percent mortality rating [3]
1 | O=C(Nc1ccc2[nH]ccc2c1)c1cc(NC(=O)C2C(c3cc(Cl)cc(Cl)c3)C2(Cl)Cl)ccc1Cl (stereo not drawn) [c12] | A (50-100) | A (80-100) | A (50-100)
2 | O=C(Nc1ccc2cccnc2c1)c1cc(NC(=O)C2C(c3cc(Cl)cc(Cl)c3)C2(Cl)Cl)ccc1Cl (stereo not drawn) [c13] | A (50-100) | B (More than 0 - Less than 80) | A (50-100)
3 | O=C(Nc1cnc2cc[nH]c2c1)c1cc(NC(=O)C2C(c3cc(Cl)cc(Cl)c3)C2(Cl)Cl)ccc1Cl (stereo not drawn) [c14] | A (50-100) | B (More than 0 - Less than 80) | A (50-100)
4 | O=C(Nc1ccc2nc(Cl)[nH]c2c1)c1cc(NC(=O)C2C(c3cc(Cl)cc(Cl)c3)C2(Cl)Cl)ccc1Cl (stereo not drawn) [c15] | A (50-100) | B (More than 0 - Less than 80) | A (50-100)
5 | COC(=O)Nc1ccc(NC(=O)c2cc(NC(=O)[C@H]3[C@H](c4cc(Cl)cc(Cl)c4)C3(Cl)Cl)ccc2Cl)cc1 [c16] | A (50-100) | B (More than 0 - Less than 80) | A (50-100)
6 | O=C(Nc1cc(C(F)(F)F)[nH]n1)c1cc(NC(=O)[C@H]2[C@H](c3cc(Cl)cc(Cl)c3)C2(Cl)Cl)ccc1Cl [c17] | A (50-100) | D (No activity noticed in this bioassay) | A (50-100)
7 | O=C(Nc1ccc(-n2cccn2)cc1)c1cc(NC(=O)C2C(c3cc(Cl)cc(Cl)c3)C2(Cl)Cl)ccc1Cl (stereo not drawn) [c18] | A (50-100) | A (80-100) | A (50-100)
8 | O=C(Nc1nc2ccccc2s1)c1cc(NC(=O)C2C(c3cc(Cl)cc(Cl)c3)C2(Cl)Cl)ccc1Cl (stereo not drawn) [c19] | A (50-100) | B (More than 0 - Less than 80) | A (50-100)
9 | COc1c(Cl)cc(C2C(C(=O)Nc3ccc(Cl)c(C(=O)Nc4ccc(NC(C)=O)cc4)c3)C2(Cl)Cl)cc1Cl (stereo not drawn) [c20] | A (50-100) | D (No activity noticed in this bioassay) | A (50-100)
10 | CNc1ccc(NC(=O)c2cc(NC(=O)C3C(c4cc(Cl)c(OC)c(Cl)c4)C3(Cl)Cl)ccc2Cl)cc1 (stereo not drawn) [c21] | A (50-100) | D (No activity noticed in this bioassay) | A (50-100)
11 | O=C(Nc1nnn[nH]1)c1cc(NC(=O)[C@H]2[C@H](c3cc(Cl)cc(Cl)c3)C2(Cl)Cl)ccc1Cl [c22] | A (50-100) | B (More than 0 - Less than 80) | A (50-100)
12 | O=C(Nc1ccc(-c2ncco2)cc1)c1cc(NC(=O)C2C(c3cc(Cl)cc(Cl)c3)C2(Cl)Cl)ccc1Cl (stereo not drawn) [c23] | A (50-100) | D (No activity noticed in this bioassay) | A (50-100)
